{
  "source": "patent US20170318812A1",
  "about": "“Plant and Crop Growth Regulating/Biostimulant Formulations and Methods of Use” (Arysta Lifescience North America, LLC, priority 2014, published 2017)",
  "assay_type_in_all_cases": "in vivo",
  "key": {"[1]": {"system": "BRADC Brachiaria decumbens (Surinam grass)", "test": "Ipfencarbazone biostimulant effect, early post emergence foliar application, greenhouse pots, plant height: Surinam grass", "conditions": "Surinam grass BASILISK", "from_the_text": "(§1) The original objective of this Example was to evaluate the herbicidal effect of ipfencarbazone when applied as a post emergent treatment to a range of selected crops and weeds. Unexpectedly, crop plant growth stimulation was observed. The actual species of weeds and crops are listed in the summary data tabulated below and in FIGS. 1-13. By convention each plant species has a Bayer code (5-letter name) with the scientific name for the plant referenced in FIGS. 1-13. In each Figure, each tray contains the same configuration of weeds and/or crops. In each Figure there is one replication of each treatment (six treatments in total). The top three photographs in each Figure show the Bayer Codes and bottom three photographs are aligned with the top three facilitating viewing of the same plant species. Throughout the Examples various abbreviations as conventional shorthand notation and will be appreciated by those skilled in the art. Some exemplary abbreviations include, “CV”=Co-efficient of Variation,” “LSD”=Least Significant Difference” (G/L (gram per L) AND GA/L (gram of active ingredient per L); “SC”=suspension concentrate formulation. The diluent in all treatments was water. By convention factors that are identical in all treatments (e.g. diluent and surfactant) are not listed in each treatment.\n(§2) Methods: The indicated size pots (see Tables below) are filled with a specific soil, the soil properties being indicated below. The referenced crops and weeds are planted by hand in each pot. […] The experiments include six treatments each replicated three times on each crop/weed species. At a specific time after emergence each crop and weed species was treated with ipfencarbazone plus a non-ionic surfactant (NIS). In the present Example, the surfactant employed was ENERGIC™ (non-ionic surfactant). The application timing is indicated in each of the Tables (1 or 2 leaf stage) below. Ipfencarbazone plus surfactant was diluted in water and applied at a rate equivalent to about 250 L/ha. Ipfencarbazone was applied using a track sprayer. After treatment, the pots were randomized in a greenhouse. At each assessment (indicated by “days after treatment” or DAT) the height of each plant was measured. The letters next to each mean indicate the level of statistical significance.\n(§3) Replications: 3, Untreated treatments: 1, Design: Randomized Complete Block (RCB), Treatment units: Treated ‘Plot’ experimental unit size, Dry Form. Unit: %, Treated ‘Plot’ experimental unit size Width: 1 meter, Treated ‘Plot’ experimental unit size Length: 1.4 meters, Application volume: 250 L/ha, Mix size: 0.15 liters, […]"}, "[2]": {"system": "selected crops and weeds", "test": "Post emergent treatment of a range of selected crops and weeds (FIGS. 1-13), measured and visual observation", "from_the_text": "as §1, §2"}, "[3]": {"system": "PHSVX Phaseolus vulgaris (Garden bean)", "test": "Ipfencarbazone biostimulant effect, early post emergence foliar application, greenhouse pots, plant height: dry bean", "conditions": "PHSVX PEROLA", "from_the_text": "as §1, §2, §3"}, "[4]": {"conditions": "15 DA-A, 125 g ai/ha + Energic NIS 0.2 % v/v"}, "[5]": {"conditions": "15 DA-A, 500 g ai/ha + Energic NIS 0.2 % v/v"}, "[6]": {"conditions": "28 DA-A, 62.5 g ai/ha + Energic NIS 0.2 % v/v"}, "[7]": {"conditions": "28 DA-A, 125 g ai/ha + Energic NIS 0.2 % v/v"}, "[8]": {"conditions": "28 DA-A, 250 g ai/ha + Energic NIS 0.2 % v/v"}, "[9]": {"conditions": "28 DA-A, 500 g ai/ha + Energic NIS 0.2 % v/v"}},
  "note": "Values joined by “and” are separate entries in the source; they are usually repeats but may differ in a detail not shown here. Equal values may be shown once.",
  "data": [
    {"molecule": "CC(C)N(C(=O)n1cnn(-c2ccc(Cl)cc2Cl)c1=O)c1ccc(F)cc1F", "note": "[ARY-0572-001, ipfencarbazone]", "values": [
      {"measurement": "Plant HEIGHT, single plots", "setting": "[1]; 15 DA-A, 62.5 g ai/ha + Energic NIS 0.2 % v/v", "result": "26.8 cm and 44.7 cm and 30.0 cm"},
      {"measurement": "Plant HEIGHT, Mean", "setting": "[1]; [4]", "result": 28.1, "unit": "cm"},
      {"measurement": "Plant HEIGHT, single plots", "setting": "[1]; [4]", "result": "27.8 cm and 23.7 cm and 32.7 cm"},
      {"measurement": "Plant HEIGHT, Mean", "setting": "[1]; 15 DA-A, 250 g ai/ha + Energic NIS 0.2 % v/v", "result": 28.5, "unit": "cm"},
      {"measurement": "Plant HEIGHT, Mean", "setting": "[1]; [5]", "result": 18.8, "unit": "cm"},
      {"measurement": "Plant HEIGHT, single plots", "setting": "[1]; [5]", "result": "21.3 cm and 13.7 cm"},
      {"measurement": "Plant HEIGHT, Mean", "setting": "[1]; 15 DA-A, 1000 g ai/ha + Energic NIS 0.2 % v/v", "result": 10.9, "unit": "cm"},
      {"measurement": "Plant HEIGHT, Mean", "setting": "[1]; [6]", "result": 55.4, "unit": "cm"},
      {"measurement": "Plant HEIGHT, single plots", "setting": "[1]; [6]", "result": "48.3 cm and 76.0 cm and 42.0 cm"},
      {"measurement": "Plant HEIGHT, Mean", "setting": "[1]; [7]", "result": 49.6, "unit": "cm"},
      {"measurement": "Plant HEIGHT, single plots", "setting": "[1]; [7]", "result": "53.0 cm and 44.7 cm and 51.0 cm"},
      {"measurement": "Plant HEIGHT, Mean", "setting": "[1]; [8]", "result": 78.9, "unit": "cm"},
      {"measurement": "Plant HEIGHT, single plots", "setting": "[1]; [8]", "result": "89.7 cm and 91.7 cm and 55.3 cm"},
      {"measurement": "Plant HEIGHT, Mean", "setting": "[1]; [9]", "result": 71.1, "unit": "cm"},
      {"measurement": "Plant HEIGHT, single plots", "setting": "[1]; [9]", "result": "67.3 cm and 77.0 cm and 69.0 cm"},
      {"measurement": "Plant HEIGHT, Mean", "setting": "[1]; 28 DA-A, 1000 g ai/ha + Energic NIS 0.2 % v/v", "result": 25.0, "unit": "cm"},
      {"measurement": "effect on crop plant seedlings (growth)", "setting": "[2]; about 60 to about 125 grams per hectare, corn, wheat, soybean and dry bean seedlings", "result": "positive effect"},
      {"measurement": "impact on plant growth", "setting": "[2]; applied post emergent, all crop and weed species evaluated, all use rates", "result": "significant, positive impact on plant growth"},
      {"measurement": "growth rate (biomass, leaf area, plant height)", "setting": "[2]; early post treatment, wheat, sorghum, corn, soybean, dry bean and cotton", "result": "meaningful increase in growth rate"},
      {"measurement": "herbicidal effect", "setting": "[2]; higher rates, 500 and 1000 g a.i./ha, specific crops and weeds", "result": "some herbicidal effect"},
      {"measurement": "plant color (visual observation)", "setting": "[2]; treated plants compared to the untreated control", "result": "significant greening effect"},
      {"measurement": "HEIGHT, percent of untreated check (APoC)", "setting": "[3]; 62.5 g ai/ha, 15 DA-A", "result": "(105.6%)"},
      {"measurement": "HEIGHT, treatment mean", "setting": "[3]; 62.5 g ai/ha, 15 DA-A", "result": "10.4 a cm and 10.4 cm"},
      {"measurement": "HEIGHT, single plots (replicates)", "setting": "[3]; 62.5 g ai/ha, 15 DA-A, plots 102, 205, 302", "result": "11.7 cm (2×) and 8.0 cm"},
      {"measurement": "HEIGHT, percent of untreated check (APoC)", "setting": "[3]; 62.5 g ai/ha, 28 DA-A, AS square root transformation", "result": "(152.2%)"},
      {"measurement": "HEIGHT, treatment mean", "setting": "[3]; 62.5 g ai/ha, 28 DA-A, AS square root transformation (t)", "result": "19.8 a cm and 19.8t cm"},
      {"measurement": "HEIGHT, single plots (replicates)", "setting": "[3]; 62.5 g ai/ha, 28 DA-A, plots 102, 205, 302", "result": "24.0 cm and 17.3 cm and 19.7 cm"},
      {"measurement": "HEIGHT, percent of untreated check (APoC)", "setting": "[3]; 125 g ai/ha, 15 DA-A", "result": "(75.8%)"},
      {"measurement": "HEIGHT, treatment mean", "setting": "[3]; 125 g ai/ha, 15 DA-A", "result": "7.5 ab cm and 7.5 cm"},
      {"measurement": "HEIGHT, single plots (replicates)", "setting": "[3]; 125 g ai/ha, 15 DA-A, plots 103, 206, 305", "result": "0.0 cm and 10.7 cm and 11.8 cm"},
      {"measurement": "HEIGHT, percent of untreated check (APoC)", "setting": "[3]; 125 g ai/ha, 28 DA-A, AS square root transformation", "result": "(91.8%)"},
      {"measurement": "HEIGHT, treatment mean", "setting": "[3]; 125 g ai/ha, 28 DA-A, AS square root transformation (t)", "result": "12.0 a cm and 12.0t cm"},
      {"measurement": "HEIGHT, single plots (replicates)", "setting": "[3]; 125 g ai/ha, 28 DA-A, plots 103, 206, 305", "result": "4.3 cm and 16.0 cm and 20.3 cm"},
      {"measurement": "HEIGHT, percent of untreated check (APoC)", "setting": "[3]; 250 g ai/ha, 15 DA-A", "result": "(5.6%)"},
      {"measurement": "HEIGHT, treatment mean", "setting": "[3]; 250 g ai/ha, 15 DA-A", "result": "0.6 c cm and 0.6 cm"},
      {"measurement": "HEIGHT, single plots (replicates)", "setting": "[3]; 250 g ai/ha, 15 DA-A, plots 104, 201, 306", "result": "0.0 cm (2×) and 1.7 cm"},
      {"measurement": "HEIGHT, percent of untreated check (APoC)", "setting": "[3]; 250 g ai/ha, 28 DA-A, AS square root transformation", "result": "(2.5%)"},
      {"measurement": "HEIGHT, treatment mean", "setting": "[3]; 250 g ai/ha, 28 DA-A, AS square root transformation (t)", "result": "0.3 a cm and 0.3t cm"},
      {"measurement": "HEIGHT, single plots (replicates)", "setting": "[3]; 250 g ai/ha, 28 DA-A, plots 104, 201, 306", "result": "0.0 cm (2×) and 2.0 cm"},
      {"measurement": "HEIGHT, percent of untreated check (APoC)", "setting": "[3]; 500 g ai/ha, 15 DA-A", "result": "(6.7%)"},
      {"measurement": "HEIGHT, treatment mean", "setting": "[3]; 500 g ai/ha, 15 DA-A", "result": "0.7 c cm and 0.7 cm"},
      {"measurement": "HEIGHT, single plots (replicates)", "setting": "[3]; 500 g ai/ha, 15 DA-A, plots 105, 202, 301", "result": "2.0 cm and 0.0 cm (2×)"},
      {"measurement": "HEIGHT, percent of untreated check (APoC)", "setting": "[3]; 500 g ai/ha, 28 DA-A, AS square root transformation", "result": "(155.1%)"},
      {"measurement": "HEIGHT, treatment mean", "setting": "[3]; 500 g ai/ha, 28 DA-A, AS square root transformation (t)", "result": "20.2 a cm and 20.2t cm"},
      {"measurement": "HEIGHT, single plots (replicates)", "setting": "[3]; 500 g ai/ha, 28 DA-A, plots 105, 202, 301", "result": "73.0 cm and 0.0 cm and 25.0 cm"},
      {"measurement": "HEIGHT, percent of untreated check (APoC)", "setting": "[3]; 1000 g ai/ha, 15 DA-A", "result": "(59.0%)"},
      {"measurement": "HEIGHT, treatment mean", "setting": "[3]; 1000 g ai/ha, 15 DA-A", "result": "5.8 b cm and 5.8 cm"},
      {"measurement": "HEIGHT, single plots (replicates)", "setting": "[3]; 1000 g ai/ha, 15 DA-A, plots 106, 203, 304", "result": "5.0 cm and 6.7 cm and 5.8 cm"},
      {"measurement": "HEIGHT, percent of untreated check (APoC)", "setting": "[3]; 1000 g ai/ha, 28 DA-A, AS square root transformation", "result": "(51.7%)"},
      {"measurement": "HEIGHT, treatment mean", "setting": "[3]; 1000 g ai/ha, 28 DA-A, AS square root transformation (t)", "result": "6.7 a cm and 6.7t cm"},
      {"measurement": "HEIGHT, single plots (replicates)", "setting": "[3]; 1000 g ai/ha, 28 DA-A, plots 106, 203, 304", "result": "6.3 cm and 7.3 cm and 6.7 cm"}
    ]}
  ]
}
